Assay results from patent publication US8475850B2, “Methods and compositions for heavy metal detoxification” (priority 2007, dated 2013).
Where two headings read alike, the source gives them in different places.

Experiments:
GSTA1 and NQO1 = settings: for phase II gene expression increased over DMSO control: text summary of Table 7
GST = GST activity assay in RL-34 cell lysate after treatment; type: cell-based, rat; settings: RL-34 cell line
NQO1 = test: NADPH quinone oxido reductase (NQO1) activity assay in RL-34 cell lysate after treatment; type: cell-based, rat; settings: RL-34 cell line
HMOX1 = settings: for HMOX1 gene expression increased over DMSO control: text summary of Table 7
[1] = test system: metallothionein (hMT1&2 and hMT1&2alt); settings: for MT gene expression increased over DMSO control: text summary of Table 7
[2] = test system: heme oxygenase (HO-1) promoter; test: heme oxygenase (HO-1) luciferase reporter in the HepG2 cell line; settings: thirty percent induction over DMSO control is considered as active
Nrf-2 = test: Western blot of Nrf-2 in the nuclear fraction of HepG2 cells; type: cell-based, human; settings: 4 hours, FIGS. 3 and 4
Description: The HepG2 cell line was cultured as above and test compounds were added for four hours, after which the cells were lysed and the nuclear fraction was isolated (Dignam, J. D., R. M. Lebovitz, and R. G. Roeder, Nucleic Acids Res, 11(5): 1475-89, 1983). Total protein concentration was determined using the Bicinchoninic Acid Kit (Sigma). […] (60 μg total protein) were electrophoresed and detection of Nrf-2 was performed using primary antibody incubation overnight at 4° C. (Santa Cruz Biotechnology, Inc, Santa Cruz, Calif.). Secondary antibody linked to horseradish peroxidase was incubated for one h (GE Healthcare, Piscataway, N.J.), after which proteins were visualized using the enhanced chemiluminescence (ECL) system. Densitometry was performed using Kodak Molecular Imaging Software v.4.0 (Eastman Kodak Company, Rochester, N.Y.) measuring the net intensity of the band.

C=C1CC[C@@H]2[C@](C)(CO)[C@H](O)CC[C@@]2(C)[C@@H]1C/C=C1/C(=O)OC[C@H]1O [Andrographis, 3-(2-(Decahydro-6-hydroxy-5-(hydroxymethyl)-5,8a-dimethyl-2-methylenenaphthyl)ethylidene)dihydro-4-hydroxyfuran-2(3H)-one]
phase II gene expression increased over DMSO control (GSTA1 and NQO1; HepG2 cells): ≥ 20%
GST activity induced over DMSO control (GST; 25 μg/ml): ≥ 20%
NQO1 enzymatic activity induced over DMSO control (NQO1; 25 μg/ml): ≥ 20%
HMOX1 gene expression increased over DMSO control (HMOX1; HepG2 cells): ≥ 20%

COc1ccc2cc3[n+](cc2c1OC)CCc1cc2c(cc1-3)OCO2 [Berberine]
NQO1 enzymatic activity induced over DMSO control (NQO1; 20 μg/ml): ≥ 20%

O=c1c(-c2ccc(O)cc2)coc2cc(O)cc(O)c12 [Bonistein]
NQO1 enzymatic activity induced over DMSO control (NQO1; 20 μg/ml): ≥ 20%

[Cl][Cd][Cl] [CdCl2]
Phase II (ave) Ratio to DMSO (GSTA1 and NQO1; HepG2 cells, 8 hours, 40 uM, average of GSTA1 and NQO1): 0.94
phase II gene induction (in words) (GSTA1 and NQO1; HepG2 cells, controls): unable to increase
MT gene induction (in words) ([1]; HepG2 cells, controls): induce
HMOX1 gene induction (in words) (HMOX1; HepG2 cells, controls): induce

COc1cc(C=CC(=O)CC(=O)C=Cc2ccc(O)c(OC)c2)ccc1O [Curcumin, 1,7-Bis(4-hydroxy-3-methoxyphenyl)hepta-1,6-diene-3,5-dione]
phase II gene expression increased over DMSO control (GSTA1 and NQO1; HepG2 cells): ≥ 20%
expression of heme oxygenase promoter activity (in words) [2]: induced
NQO1 enzymatic activity induced over DMSO control (NQO1; 5 μg/ml): ≥ 20%
HMOX1 gene expression increased over DMSO control (HMOX1; HepG2 cells): ≥ 20%

c1ccc2c(Cc3c[nH]c4ccccc34)c[nH]c2c1 [DIM]
NQO1 enzymatic activity induced over DMSO control (NQO1; 25 μg/ml): ≥ 20%

OCc1c[nH]c2ccccc12 [I3C]
NQO1 enzymatic activity induced over DMSO control (NQO1; 25 μg/ml): ≥ 20%

CC1(C)CC[C@]2(C(=O)O)CC[C@]3(C)C(=CC[C@@H]4[C@@]5(C)CC[C@H](O)C(C)(C)[C@@H]5CC[C@]43C)[C@@H]2C1 [Oleanolic acid]
MT gene expression increased over DMSO control ([1]; HepG2 cells): ≥ 20%
expression of heme oxygenase promoter activity (in words) [2]: induced
NQO1 enzymatic activity induced over DMSO control (NQO1; 25 μg/ml): ≥ 20%

C=C1C(=O)O[C@H]2[C@H]1CC/C(C)=C/CC[C@@]1(C)O[C@@H]21 [Parthenolide]
NQO1 enzymatic activity induced over DMSO control (NQO1; 20 μg/ml): ≥ 20%

O=c1c(O)c(-c2ccc(O)c(O)c2)oc2cc(O)cc(O)c12 [Quercitin]
NQO1 enzymatic activity induced over DMSO control (NQO1; 20 μg/ml): ≥ 20%

Oc1ccc(C=Cc2cc(O)cc(O)c2)cc1 [Resveratrol]
NQO1 enzymatic activity induced over DMSO control (NQO1; 20 μg/ml): ≥ 20%

C[S+]([O-])CCCCN=C=S (stereo not shown) [Sulforaphane]
Phase II (ave) Ratio to DMSO (GSTA1 and NQO1): 1.64
phase II gene induction (in words) (GSTA1 and NQO1): increased
GST activity induced over DMSO control (GST; 3 μg/ml): ≥ 20%
MT 1.2 (ave) Ratio to DMSO [1]: 0.87
MT gene induction (in words) [1]: but not MT
expression of heme oxygenase promoter activity (in words) [2]: induced
Nrf-2 nuclear translocation (in words) (Nrf-2): dramatic increase
NQO1 enzymatic activity induced over DMSO control (NQO1; 3 μg/ml): ≥ 20%
HMOX1 gene induction (in words) (HMOX1): increased

O=c1oc2c(O)c3oc(=O)c4c5c(oc(=O)c6cc(O)c(O)c(O)c65)c(O)c5oc(=O)c(c2c2c(O)c(O)c(O)cc12)c3c54 [Terminalin]
expression of heme oxygenase promoter activity (in words) [2]: induced

COc1cc(O)c(CC=C(C)C)c(O)c1C(=O)/C=C/c1ccc(O)cc1 [Xanthohumol]
GST activity induced over DMSO control (GST; 1 μg/ml): ≥ 20%
MT gene expression increased over DMSO control ([1]; HepG2 cells): ≥ 20%
expression of heme oxygenase promoter activity (in words) [2]: induced
NQO1 enzymatic activity induced over DMSO control (NQO1; 1 μg/ml): ≥ 20%
HMOX1 gene expression increased over DMSO control (HMOX1; HepG2 cells): ≥ 20%

[Cl-].[Cl-].[Zn+2] [ZnCl2]
Phase II (ave) Ratio to DMSO (GSTA1 and NQO1; HepG2 cells, 8 hours, 10 μg/ml, average of GSTA1 and NQO1): 0.94
expression of heme oxygenase promoter activity (in words) [2]: induced

O=C(/C=C/c1ccc(O)c(O)c1)O[C@@H]1C[C@](O)(C(=O)O)C[C@@H](O)[C@H]1O [chlorogenic acid]
NQO1 enzymatic activity induced over DMSO control (NQO1; 25 μg/ml): ≥ 20%
